Experimental data published in patent US20260294871A1, “PHARMACEUTICAL COMBINATIONS AND COMPOSITIONS THEREOF COMPRISING ANTIBACTERIAL AGENTS” (priority 2023, published 2026).
Values after ≈ are worked out from the molar mass of the structure shown. Values joined by “and” are separate entries in the source; they are usually repeats but may differ in a detail not shown here. Identical values can stand only once. Like-named read-outs stand apart in the source and are kept apart here.

How the values were obtained:
A. baumannii = assay: MIC profile of EDTA, A. baumannii; format: cell-based, Acinetobacter baumannii
Method: (§1) Objective: The in-vitro activity of ethylenediaminetetraacetic acid (EDTA) was tested in cation-adjusted Mueller Hinton broth (CA-MHB) and MHB against a panel of Gram-negative clinical isolates from India.
(§2) Method: A total of 80 isolates including ATCC strains and non-duplicate clinically relevant Escherichia coli (n=20), Klebsiella pneumoniae (n=20), Pseudomonas aeruginosa (n=21) and Acinetobacter baumannii (n=19) characterized isolates were selected prior to susceptibility testing. The clinical isolates were collected from hospitalized patients from tertiary care medical centers in India. Isolates were tested for susceptibility to different test concentrations of EDTA (1.25, 2.5, 5, 10, 20, 40, 80 mM) in CA-MHB media and MHB by broth microdilution.

All isolates (n = 80) = assay: MIC profile of EDTA, all tested isolates; format: cell-based, Gram-negative clinical isolates
Method: as §1, §2

P. aeruginosa [1] = assay: MIC profile of EDTA, P. aeruginosa; format: cell-based, Pseudomonas aeruginosa; conditions: for MIC: CA-MHB
Method: as §1, §2

E. coli = assay: MIC profile of EDTA, E. coli; format: cell-based, Escherichia coli; conditions: for MIC50 / MIC90 / MIC: Escherichia coli, n = 20
Method: as §1, §2

K. pneumoniae [2] = assay: MIC profile of EDTA, K. pneumoniae; format: cell-based, Klebsiella pneumoniae
Method: as §1, §2

Non-fermenters = assay: MIC profile of EDTA, non-fermenters; format: cell-based; conditions: n = 40; for MIC: CA-MHB
Method: as §1, §2

Enterobacterales = assay: MIC profile of EDTA, Enterobacterales; format: cell-based; conditions: n = 40
Method: as §1, §2

K. pneumoniae [3] = assay: MIC by broth microdilution against Klebsiella; format: cell-based, Klebsiella pneumoniae; conditions: highly resistant strains
Method: (§3) In a typical study MIC tests were performed by broth microdilution in line with CLSI susceptibility testing standards. Bacterial inocula were prepared at ca. 1×10^6 CFU/mL by diluting 100-fold a 0.5 McFarland suspension in CA-MHB with TES. Microtiter plate wells containing 50 μL of antibacterial solutions at 2×the final concentrations were diluted 2-fold with 50 μL of inoculum to give a final inoculum of ca. 5×10^5 CFU/mL and desired test concentrations of antibacterial agents. Test microtiter plates were incubated according to CLSI guidelines and read visually. MIC values corresponded to the first well with no visible growth.
The results of antibacterial activity of amikacin, Ceftazidime-avibactam, Ceftriaxone with sulbactam and EDTA, Meropenem and Meropenem with avibactam and EDTA against highly resistant strains of Klebsiella (93. 3% Mem NS) are given in Table 4.

Acinetobacter baumannii = assay: MIC by broth microdilution against Acinetobacter baumannii; format: cell-based
Method: as §3
The results of antibacterial activity of amikacin, Ceftazidime-avibactam, Ceftriaxone with sulbactam and EDTA, Meropenem and Meropenem with avibactum and EDTA against highly resistant strains of Acinetobacter baumannii are given in Table 7.

[4] = tested on: all grouped isolates from India; assay: MIC by broth microdilution against all grouped isolates from India; format: cell-based, resistant bacterial strains
Method: as §3
There was a marked improvement in antibacterial activity, compared to MEM alone, observed for the triple combinations, for MEM/AVI [4 mg/L]/EDTA [10 mM] and MEM/AVI [4 mg/L]/EDTA [20 mM], the reduction in MIC90 was 0.06 μg/mL and ≤0.002 μg/mL, respectively.

[5] = tested on: Enterobacterales isolates from India; assay: MIC by broth microdilution against Enterobacterales; format: cell-based, Enterobacteriaceae; conditions: n=301
Method: as §3
The results of antibacterial activity of amikacin, Ceftazidime-avibactam, Ceftriaxone with sulbactam and EDTA, Meropenem and Meropenem with avibactam and EDTA against highly resistant strains of Enterobacteriaceae are given in Table 2.

[6] = tested on: Stenotrophomonas maltophilia; assay: MIC by broth microdilution against Stenotrophomonas maltophilia; format: cell-based; conditions: Stenotrophomonas maltophilia, highly resistant strains
Method: as §3
The results of antibacterial activity of amikacin, Ceftazidime-avibactam, Ceftriaxone with sulbactam and EDTA, Meropenem and Meropenem with avibactum and EDTA against highly resistant strains of Stenotrophomonas maltophilia are given in Table 8.

P. aeruginosa [7] = assay: MIC by broth microdilution against P. aeruginosa; format: cell-based, Pseudomonas aeruginosa; conditions: Pseudomonas aeruginosa, highly resistant strains
Method: as §3
The results of antibacterial activity of amikacin, Ceftazidime-avibactam, Ceftriaxone with sulbactam and EDTA, Meropenem and Meropenem with avibactum and EDTA against highly resistant strains of P. aeruginosa are given in Table 5. As may be seen, the activity of the comparators was much lower although CRO/S4/E10 maximum MIC90 were much lower at ≤0.03 μg/mL.

[8] = tested on: Non-Enterobacteriaceae (non-fermenter isolates); assay: MIC by broth microdilution against Non-Enterobacteriaceae; format: cell-based
Method: as §3

Escherichia coli = assay: MIC by broth microdilution against E. coli; format: cell-based; conditions: Escherichia coli, highly resistant strains
Method: as §3
The results of antibacterial activity of amikacin, Ceftazidime-avibactam, Ceftriaxone with sulbactam and EDTA, Meropenem and Meropenem with avibactam and EDTA against highly resistant strains of Escherichia coli are given in Table 3. […] There was a marked improvement in antibacterial activity, compared to MEM alone, observed for the triple combination MEM/AVI [4 mg/L]/EDTA [10 mM] with a MIC90 at 0.004 μg/mL

`O=C(O)CN(CCN(CC(=O)O)CC(=O)O)CC(=O)O` [EDTA, N,N′-(Ethane-1,2-diyl)bis[N-(carboxymethyl)glycine]] showed an MIC (A. baumannii; Acinetobacter baumannii, read-out: MICs) of no more than 1.25 mM, an MIC50 (A. baumannii; Acinetobacter baumannii, CA-MHB, n = 19, read-out: MIC50) of no more than 1.25 mM and an MIC90 (A. baumannii; Acinetobacter baumannii, CA-MHB, n = 19, read-out: MIC90) of no more than 1.25 mM. The MIC (A. baumannii; Acinetobacter baumannii, CA-MHB, n = 19, read-out: MIC MAX) was no more than 1.25 mM, the MIC (A. baumannii; Acinetobacter baumannii, CA-MHB, n = 19, read-out: MIC MIN) was no more than 1.25 mM and the MIC50 (A. baumannii; MHB, n = 19) was no more than 1.25 mM. The MIC90 (A. baumannii; MHB, n = 19) was no more than 1.25 mM, the “MIC MAX” value (A. baumannii; MHB, n = 19) was no more than 1.25 mM and the “MIC MIN” value (A. baumannii; MHB, n = 19) was no more than 1.25 mM. The MIC50 (All isolates (n = 80); CA-MHB) was 10 mM (≈ 2920 µg/mL), the MIC90 (All isolates (n = 80); CA-MHB) was > 80 mM and >80 mM and the MIC (All isolates (n = 80); CA-MHB, read-out: MIC MAX) was greater than 80 mM. The MIC (All isolates (n = 80); CA-MHB, read-out: MIC MIN) was no more than 1.25 mM, the MIC50 (All isolates (n = 80); MHB) was 2.5 mM (≈ 731 µg/mL) and the MIC90 (All isolates (n = 80); MHB) was 80 mM (≈ 23400 µg/mL). For the same molecule, the “MIC MAX” value (All isolates (n = 80); MHB) was greater than 80 mM, the “MIC MIN” value (All isolates (n = 80); MHB) was no more than 1.25 mM and the MIC50 (P. aeruginosa [1]; MHB, n = 21) was 10 mM (≈ 2920 µg/mL). For the same molecule, the MIC90 (P. aeruginosa [1]; MHB, n = 21) was 20 mM (≈ 5840 µg/mL), the “MIC MAX” value (P. aeruginosa [1]; MHB, n = 21) was 20 mM (≈ 5840 µg/mL) and the “MIC MIN” value (P. aeruginosa [1]; MHB, n = 21) was no more than 1.25 mM. The MIC50 (P. aeruginosa [1]; Pseudomonas aeruginosa) was 10 mM (≈ 2920 µg/mL), the MIC90 (P. aeruginosa [1]; Pseudomonas aeruginosa) was 20 mM (≈ 5840 µg/mL) and the MIC (P. aeruginosa [1]; Pseudomonas aeruginosa, n = 21, read-out: MIC MAX) was 20 mM (≈ 5840 µg/mL). The MIC (P. aeruginosa [1]; Pseudomonas aeruginosa, n = 21, read-out: MIC MIN) was no more than 1.25 mM, the MIC50 (E. coli; CA-MHB) was 10 mM (≈ 2920 µg/mL) and the MIC90 (E. coli; CA-MHB) was 80 mM (≈ 23400 µg/mL). For the same molecule, the MIC (E. coli; CA-MHB, read-out: MIC MAX) was greater than 80 mM, the MIC (E. coli; CA-MHB, read-out: MIC MIN) was 2.5 mM (≈ 731 µg/mL) and the MIC50 (E. coli; MHB) was 2.5 mM (≈ 731 µg/mL). It also gave an MIC90 (E. coli; MHB) of 20 mM (≈ 5840 µg/mL), an MIC (E. coli; MHB, read-out: MIC MAX) of 80 mM (≈ 23400 µg/mL) and an MIC (E. coli; MHB, read-out: MIC MIN) of no more than 1.25 mM. For the same molecule, the “MIC50 and MIC90 in MHB, fold lower to CA-MHB” value (E. coli; MHB vs CA-MHB) was 4 fold, the MIC90 (K. pneumoniae [2]; CA-MHB, n = 20) was greater than 80 mM and the MIC50 (K. pneumoniae [2]; Klebsiella pneumoniae) was 80 mM (≈ 23400 µg/mL). The MIC90 (K. pneumoniae [2]; Klebsiella pneumoniae, CA-MHB, n = 20) was greater than 80 mM, the MIC (K. pneumoniae [2]; Klebsiella pneumoniae, CA-MHB, n = 20, read-out: MIC MAX) was greater than 80 mM and the MIC (K. pneumoniae [2]; Klebsiella pneumoniae, CA-MHB, n = 20, read-out: MIC MIN) was 20 mM (≈ 5840 µg/mL). For the same molecule, the MIC90 (K. pneumoniae [2]; Klebsiella pneumoniae, MHB, n = 20) was 80 mM (≈ 23400 µg/mL), the MIC (K. pneumoniae [2]; Klebsiella pneumoniae, MHB, n = 20, read-out: MIC MAX) was greater than 80 mM and the MIC (K. pneumoniae [2]; Klebsiella pneumoniae, MHB, n = 20, read-out: MIC MIN) was 5 mM (≈ 1460 µg/mL). The “MIC in MHB compared to CA-MHB” value (K. pneumoniae [2]; MHB vs CA-MHB) was “almost similar to CA-MHB”, the MIC50 (K. pneumoniae [2]; MHB, n = 20) was 80 mM (≈ 23400 µg/mL) and the MIC (Non-fermenters; read-out: MIC MAX) was 20 mM (≈ 5840 µg/mL). The MIC (Non-fermenters; read-out: MIC MIN) was no more than 1.25 mM, the “MIC MAX” value (Non-fermenters; MHB) was 20 mM (≈ 5840 µg/mL) and the “MIC MIN” value (Non-fermenters; MHB) was no more than 1.25 mM. For the same molecule, the MIC50 (Enterobacterales; CA-MHB) was 40 mM (≈ 11700 µg/mL), the MIC90 (Enterobacterales; CA-MHB) was > 80 mM and >80 mM and the MIC (Enterobacterales; CA-MHB, read-out: MIC MAX) was greater than 80 mM. It also gave an MIC (Enterobacterales; CA-MHB, read-out: MIC MIN) of 2.5 mM (≈ 731 µg/mL), an MIC50 (Enterobacterales; MHB) of 10 mM (≈ 2920 µg/mL) and an MIC90 (Enterobacterales; MHB) of 80 mM (≈ 23400 µg/mL). The MIC (Enterobacterales; MHB, read-out: MIC MAX) was greater than 80 mM and the MIC (Enterobacterales; MHB, read-out: MIC MIN) was no more than 1.25 mM.
`NCC[C@H](O)C(=O)N[C@@H]1C[C@H](N)[C@@H](O[C@H]2O[C@H](CN)[C@@H](O)[C@H](O)[C@H]2O)[C@H](O)[C@H]1O[C@H]1O[C@H](CO)[C@@H](O)[C@H](N)[C@H]1O` [Amikacin] was tested, and the MIC50 (K. pneumoniae [3]; Klebsiella pneumoniae, read-out: MIC50) was greater than 64 µg/mL, the MIC90 (K. pneumoniae [3]; Klebsiella pneumoniae, read-out: MIC90) was greater than 64 µg/mL and the MIC90 (K. pneumoniae [3]) was greater than 64 µg/mL. It also gave an MIC90 (Acinetobacter baumannii; Acinetobacter baumannii) greater than 64 µg/mL, an MIC50 (Acinetobacter baumannii; Acinetobacter baumannii, highly resistant strains) greater than 64 µg/mL and an MIC90 (Acinetobacter baumannii; highly resistant strains) greater than 64 µg/mL. For the same molecule, the MIC50 [4] was greater than 64 µg/mL, the MIC90 [4] was greater than 64 µg/mL and the MIC90 ([4]; all grouped isolates (606)) was greater than 64 µg/mL. The MIC90 [5] was greater than 64 µg/mL, the MIC50 ([5]; read-out: MIC50) was greater than 64 µg/mL and the MIC90 ([5]; read-out: MIC90) was greater than 64 µg/mL. It also gave an MIC50 ([6]; read-out: MIC50) greater than 64 µg/mL, an MIC90 ([6]; read-out: MIC90) greater than 64 µg/mL and an MIC50 (P. aeruginosa [7]) greater than 64 µg/mL. It also gave an MIC90 (P. aeruginosa [7]; read-out: MIC90) greater than 64 µg/mL, an MIC50 [8] greater than 64 µg/mL and an MIC90 [8] greater than 64 µg/mL. For the same molecule, the MIC90 ([8]; highly resistant strains) was greater than 64 µg/mL, the MIC50 (Escherichia coli; read-out: MIC50) was 8 µg/mL and the MIC90 (Escherichia coli; read-out: MIC90) was greater than 64 µg/mL.
